From patent US20060235222A1, “Indole-derivative modulators of steroid hormone nuclear receptors” (ELI LILLY AND COMPANY, priority 2003, published 2006)

Legend:
human MR = target: T1, human MR (Homo sapiens, UniProt P08235); assay: Mineralocorticoid Receptor Binding Assay (Method 1), [3H]-aldosterone competition; details: 0.5 nM [3H]-aldosterone, human MR expressed in Sf9 cells
T1 construct: The full length human MR gene is cloned from a human kidney or human brain cDNA library; inferred from own knowledge of the pAcHLT vector (N); made in house; host or cells: Sf9 insect cells (baculovirus)
T1 sequence (P08235 1-984): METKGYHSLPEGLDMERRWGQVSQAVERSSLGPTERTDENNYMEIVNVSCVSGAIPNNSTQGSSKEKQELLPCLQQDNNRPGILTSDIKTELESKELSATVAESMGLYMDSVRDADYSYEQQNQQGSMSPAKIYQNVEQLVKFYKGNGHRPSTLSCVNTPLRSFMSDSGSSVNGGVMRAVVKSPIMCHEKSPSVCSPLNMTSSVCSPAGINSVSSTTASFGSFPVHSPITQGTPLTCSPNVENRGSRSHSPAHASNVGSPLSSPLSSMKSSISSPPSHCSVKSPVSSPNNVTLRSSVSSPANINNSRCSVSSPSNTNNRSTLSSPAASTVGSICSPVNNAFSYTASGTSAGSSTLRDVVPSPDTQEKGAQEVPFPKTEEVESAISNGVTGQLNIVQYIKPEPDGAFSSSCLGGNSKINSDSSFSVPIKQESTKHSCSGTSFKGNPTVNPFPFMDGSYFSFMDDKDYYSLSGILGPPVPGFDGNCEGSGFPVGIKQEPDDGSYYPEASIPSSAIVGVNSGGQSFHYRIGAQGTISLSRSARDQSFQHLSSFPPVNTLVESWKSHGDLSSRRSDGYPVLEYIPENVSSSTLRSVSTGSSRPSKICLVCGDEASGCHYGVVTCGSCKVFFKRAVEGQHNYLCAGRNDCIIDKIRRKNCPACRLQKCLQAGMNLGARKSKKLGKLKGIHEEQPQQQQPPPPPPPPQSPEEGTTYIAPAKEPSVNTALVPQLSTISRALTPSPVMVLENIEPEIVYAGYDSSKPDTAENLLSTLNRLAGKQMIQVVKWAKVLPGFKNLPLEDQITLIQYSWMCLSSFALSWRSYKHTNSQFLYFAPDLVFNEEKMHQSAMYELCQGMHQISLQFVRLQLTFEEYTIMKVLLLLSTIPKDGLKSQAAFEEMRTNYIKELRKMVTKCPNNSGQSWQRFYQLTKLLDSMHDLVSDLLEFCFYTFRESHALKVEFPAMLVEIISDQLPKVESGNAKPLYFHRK
How it was run: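 Full-length human MR expressed in Sf9 cells via baculovirus; lysate supernatant (about 20-25 μg protein) incubated with 0.5 nM [3H]-aldosterone and test compound for about 16 h at 4° C. Buffer was Tris/molybdate/phosphate/pyrophosphate with 10% glycerol, pH 7.5; filter-bound complex counted by scintillation.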

glucocorticoid receptor = target: T2, glucocorticoid receptor (Homo sapiens, UniProt P04150); assay: Glucocorticoid Receptor Binding Assay (Method 1), [3H]-dexamethasone competition, A549 cell extract; details: 1.86 nM [3H]-dexamethasone, read-out: GR Ki (nM) Method 1
T2 construct: containing 50-200 ug of A549 cell extract and 1.86 nM; host or cells: A549 human lung epithelial cells
T2 sequence (P04150 1-777): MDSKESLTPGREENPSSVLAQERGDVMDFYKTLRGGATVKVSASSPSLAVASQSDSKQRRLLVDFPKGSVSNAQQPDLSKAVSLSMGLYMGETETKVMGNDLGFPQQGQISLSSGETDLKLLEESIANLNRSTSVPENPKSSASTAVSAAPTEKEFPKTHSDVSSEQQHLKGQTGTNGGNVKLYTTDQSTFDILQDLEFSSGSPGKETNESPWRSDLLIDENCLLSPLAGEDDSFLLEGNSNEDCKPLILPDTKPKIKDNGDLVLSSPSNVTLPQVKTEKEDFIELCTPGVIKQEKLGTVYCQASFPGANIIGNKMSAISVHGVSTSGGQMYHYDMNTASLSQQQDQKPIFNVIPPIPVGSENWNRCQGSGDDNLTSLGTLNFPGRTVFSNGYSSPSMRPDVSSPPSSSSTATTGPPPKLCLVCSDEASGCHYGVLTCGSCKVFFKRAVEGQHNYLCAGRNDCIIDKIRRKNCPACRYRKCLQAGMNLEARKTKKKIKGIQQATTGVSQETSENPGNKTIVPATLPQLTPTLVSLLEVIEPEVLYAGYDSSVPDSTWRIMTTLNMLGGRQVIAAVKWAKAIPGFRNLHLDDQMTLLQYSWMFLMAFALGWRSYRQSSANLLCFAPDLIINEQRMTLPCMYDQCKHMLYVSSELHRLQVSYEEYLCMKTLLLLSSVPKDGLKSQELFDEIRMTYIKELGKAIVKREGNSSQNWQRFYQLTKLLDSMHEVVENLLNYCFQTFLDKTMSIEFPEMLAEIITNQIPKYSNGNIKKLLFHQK
How it was run: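 Receptor source: sonicated extract of human A549 lung epithelial cells in glycerol/Tris-HCl pH 7.2 buffer with sodium molybdate. [3H]-dexamethasone competition run 16 h at 4 °C; unbound radioligand stripped with dextran-coated charcoal (8 min, RT) and receptor-bound radioactivity quantified by scintillation counting.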

[1] = target: T3, human GR (glucocorticoid receptor) (Homo sapiens, UniProt P04150); assay: Alternative Binding Assay Protocol (Method 2), 293-GR lysate, 3H-dexamethasone competition; details: 0.3 nM 3H-dexamethasone
T3 construct: expressed in transfected cells; host or cells: 293 cells
T3 sequence (P04150 1-777): T2 sequence (P04150 1-777)
Procedure: Alternative Binding Assay Protocol for MR, GR, AR, and PR (Method 2):
Cell lysates from 293 cells overexpressing human GR (glucocorticoid receptor), AR (androgen receptor), MR (mineralocorticoid receptor) or PR (progesterone-receptor) are used for competition binding assays to determine Ki values for test compounds. […] Competing compounds are added at various concentraions in half-log increments. Non-specific binding is determined in the presence of 500 nM dexamethasone for GR binding, 500 nM aldosterone for MR binding, or 500 nM methyltrienolone for AR and PR binding. The binding reaction (140 μl) is incubated for overnight at 4° C., then 70 μl of cold charcoal-dextran buffer (containing per 50 ml of assay buffer, 0.75 g of charcoal and 0.25 g of dextran) is added to each reaction. Plates are mixed 8 minutes on an orbital shaker at 4° C. Plates are then centrifuged at 3,000 rpm at 4° C. for 10 minutes. An aliquot of 120 μl of the mix is transferred to another 96-well plate and 175 μl of Wallac Optiphase “Hisafe 3” scintillation fluid is added to each well. Plates are sealed and shaken vigorously on an orbital shaker. After an incubation of 2 hrs, plates are read in a Wallac Microbeta counter. […] The Kd for ^3H-dexamethasone for GR binding, ^3H-methyltrienolone for AR binding, ^3H-aldosterone for MR binding, or ^3H-methyltrienolone for PR binding, is determined by saturation binding. The IC50 values for compounds are converted to Ki using Cheng-Prusoff equation and the Kd determined by saturation binding assay.

SMILES	Ki (human MR)	Ki (glucocorticoid receptor)	melting point	Ki [1]
CCC(CC)(c1ccc(F)cc1)c1c[nH]c2c(NS(C)(=O)=O)cccc12 [Example 59, N-{3-[1-Ethyl-1-(4-fluoro-phenyl)-propyl]-1H-indol-7-yl}-methanesulfonamide]	< 500 nM	< 500 nM	137 to 138 °C	–
CCC(CC)(c1ccc(F)cc1F)c1c[nH]c2c(NS(C)(=O)=O)cccc12 [Example 62, N-{3-[1-(2,4-Difluoro-phenyl)-1-ethyl-propyl]-1H-indol-7-yl}-methanesulfonamide]	< 500 nM	< 500 nM	144 to 147 °C	–
CCC(CC)(c1ccc2[nH]cnc2c1)c1c[nH]c2c(NS(C)(=O)=O)cccc12 [Example 134, N-{3-[1-(1H-Benzoimidazol-5-yl)-1-ethyl-propyl]-1H-indol-7-yl}-methanesulfonamide]	< 500 nM	–	150 to 165 °C	< 500 nM
CCC(CC)(c1ccc2sccc2c1)c1c[nH]c2c(NS(C)(=O)=O)cccc12 [Example 135, N-[3-(1-Benzo[b]thiophen-5-yl-1-ethyl-propyl)-1H-indol-7-yl]-methanesulfonamide]	< 500 nM	–	85 to 95 °C	< 500 nM
CCC(CC)(c1ccc2nc(C)oc2c1)c1c[nH]c2c(NS(C)(=O)=O)cccc12 [Example 136, N-{3-[1-Ethyl-1-(2-methyl-benzooxazol-6-yl)-propyl]-1H-indol-7-yl}-methanesulfonamide]	< 500 nM	–	98 to 105 °C	< 1000 nM
CCC(CC)(c1ccc2ncoc2c1)c1c[nH]c2c(NS(C)(=O)=O)cccc12 [Example 137, N-[3-(1-Benzooxazol-6-yl-1-ethyl-propyl)-1H-indol-7-yl]-methanesulfonamide]	< 500 nM	–	211 to 213 °C	< 500 nM
CCC(CC)(c1ccc2scnc2c1)c1c[nH]c2c(NS(C)(=O)=O)cccc12 [Example 142, N-[3-(1-Benzothiazol-5-yl-1-ethyl-propyl)-1H-indol-7-yl]-methanesulfonamide]	< 500 nM	–	105 to 115 °C (dec.)	–
CCC(CC)(c1ccc2c(N)noc2c1)c1c[nH]c2c(NS(C)(=O)=O)cccc12 [Example 143, N-{3-[1-(3-Amino-benzo[d]isoxazol-6-yl)-1-ethyl-propyl]-1H-indol-7-yl}-methanesulfonamide]	< 500 nM	–	95 to 105 °C	–
CCC(CC)(c1ccc2nc(N)sc2c1)c1c[nH]c2c(NS(C)(=O)=O)cccc12 [Example 144, N-{3-[1-(2-Amino-benzothiazol-6-yl)-1-ethyl-propyl]-1H-indol-7-yl}-methanesulfonamide]	< 500 nM	–	155 to 160 °C	–
CCC(CC)(c1ccc2ncsc2c1)c1c[nH]c2c(NS(C)(=O)=O)cccc12 [Example 149, N-[3-(1-Benzothiazol-6-yl-1-ethyl-propyl)-1H-indol-7-yl]-methanesulfonamide]	< 500 nM	–	117 to 120 °C	–
CCC(CC)(c1ccc2onc(N)c2c1)c1c[nH]c2c(NS(C)(=O)=O)cccc12 [Example 152, N-{3-[1-(3-Amino-benzo[d]isoxazol-5-yl)-1-ethyl-propyl]-1H-indol-7-yl}-methanesulfonamide]	< 500 nM	–	155 to 161 °C	–
CCC(CC)(c1ccc2nc(C)[nH]c2c1)c1c[nH]c2c(NS(C)(=O)=O)cccc12 [Example 154, N-{3-[1-Ethyl-1-(2-methyl-3H-benzoimidazol-5-yl)-propyl]-1H-indol-7-yl}-methanesulfonamide]	–	–	188 to 192 °C	< 500 nM
CCC(CC)(c1ccc2oc(C)cc2c1)c1c[nH]c2c(NS(C)(=O)=O)cccc12 [Example 155, N-{3-[1-Ethyl-1-(2-methyl-benzofuran-5-yl)-propyl]-1H-indol-7-yl}-methanesulfonamide]	–	–	100 to 105 °C	–
CCC(CC)(c1ccc2c(ccn2C(C)=O)c1)c1c[nH]c2c(NS(C)(=O)=O)cccc12 [Example 156, N-{3-[1-(1-Acetyl-1H-indol-5-yl)-1-ethyl-propyl]-1H-indol-7-yl}-methanesulfonamide]	–	–	125 to 130 °C	–
CCC(CC)(c1ccc2[nH]ccc2c1)c1c[nH]c2c(NS(C)(=O)=O)cccc12 [Example 157, N-{3-[1-Ethyl-1-(1H-indol-5-yl)-propyl]-1H-indol-7-yl}-methanesulfonamide]	< 500 nM	–	115 to 120 °C	–
CCC(CC)(c1ccc2ccn(C(C)=O)c2c1)c1c[nH]c2c(NS(C)(=O)=O)cccc12 [Example 158, N-{3-[1-(1-Acetyl-1H-indol-6-yl)-1-ethyl-propyl]-1H-indol-7-yl}-methanesulfonamide]	–	–	216 to 218 °C	< 500 nM
CCC(CC)(c1ccc2cc[nH]c2c1)c1c[nH]c2c(NS(C)(=O)=O)cccc12 [Example 159, N-{3-[1-Ethyl-1-(1H-indol-6-yl)-propyl]-1H-indol-7-yl}-methanesulfonamide]	< 500 nM	–	110 to 115 °C	–
CCC(CC)(c1cccc2oc(C)cc12)c1c[nH]c2c(NS(C)(=O)=O)cccc12 [Example 160, N-{3-[1-Ethyl-1-(2-methyl-benzofuran-4-yl)-propyl]-1H-indol-7-yl}-methanesulfonamide]	–	–	85 to 90 °C	–
CCC(CC)(c1ccc2c(c1)nc(C)n2C)c1c[nH]c2c(NS(C)(=O)=O)cccc12 [Example 162, N-{3-[1-(1,2-Dimethyl-1H-benzoimidazol-5-yl)-1-ethyl-propyl]-1H-indol-7-yl}-methanesulfonamide]	–	–	275 to 278 °C	–
